# Results as given in patent publication US20250042884A1, “3-ARYLOXYL-3-FIVE-MEMBERED HETEROARYL PROPYLAMINE COMPOUND AND USE THEREOF” (Shanghai Leado Pharmatech Co. Ltd., priority 2018, published 2025).
# What was measured:
# ICR mice = test: Mice acetic acid writhing pain model (visceral and inflammatory pain); format: in vivo; conditions: 1 h before acetic acid, saline group 49 times
# Description: Male ICR mice, 22-25 g, were fasted but allowed to drink water freely for 2 h before administration. All ICR mice were weighed and grouped randomly, each group had >10 animals. […] The drug was administrated by gavage based on the weight of mice. 1.5% acetic acid solution (0.1 ml/10 g) was injected intraperitoneally 1 h after administration, and the number of times of visceral pain in each group was observed within 30 min. When concave abdomen, stretched trunk and hind claw, and high buttocks appeared, one number point was recorded. Finally, the number of appearance of the above phenomenon was counted within 30 minutes.
# C57BL/6 mice = test: Mice formalin pain model (acute and inflammatory pain); format: in vivo; conditions: for Licking claw time (s) in phase II (10-60 min): hydrochloride salt, blank vehicle 349.55 ± 43.09
# Excerpt: 150 C57BL/6 mice (male, 9-week aged) were randomly divided into 15 groups, (each group had 10 mice) for the analgesic activity test of 3 compounds in the mice formalin pain model respectively: the compound I-1 group (compound I-1 prepared in Example 2 whose hydrochloride salt was used in the experiment), the S-duloxetine group (its hydrochloride salt was used in the experiment) and the compound C1 group (the compound C1 prepared in Comparative Example 1, whose hydrochloride salt was used in the experiment). Before the start of experiments, the mice were allowed to adapt to the experimental environment for 72 h with free feeding and drinking water. The test drugs were administrated by intraperitoneal injection at a dosage as follows:
# Compound I-1 group: blank vehicle (blank saline control), 0.1 mg/kg, 0.5 mg/kg, 1 mg/kg, 5 mg/kg and 10 mg/kg;
# S-duloxetine group: blank vehicle (blank saline control), 1 mg/kg, 5 mg/kg, 10 mg/kg and 20 mg/kg;
# Compound C1 group: blank vehicle (blank saline control), 0.1 mg/kg, 0.5 mg/kg, 1 mg/kg, 5 mg/kg and 10 mg/kg.
# After administration, the mice were placed in a transparent, ventilated plexiglass cylinder for 1 h, and then 20 μl of 4% formalin solution was injected into the left hind plantar of mice of each group by microinjector, claw pain response in mice were real-time recorded by a mini-camera. The time length of licking left claw were used as an indicator of pain response, licking time in 0-10 min (phase I) and 10-60 min (phase II) were observed and recorded, and the statistical analysis was conducted. The half effective dose (ED50) of 3 compounds were calculated: ED50 referred to the dose of the drug which decreased licking time by half as compared with the blank control group. The smaller the ED50 value was, the lower the effective analgesic dose of the compound was and the better the analgesic effect was.
# Sprague-Dawley rats = test: Rat hot plate pain model (acute pain); format: in vivo; conditions: 30 mg/kg intraperitoneal, hydrochloride salt
# Description: Sprague-Dawley male, mature and unmated rats were placed at hot and cold plate (product model: PE34, US IITC) with constant 53±0.1° C. Mice with painful response such as licking claw, shaking claw or slightly jumping within 10-30 s were selected, and mice which evaded and jumped were abandoned. […] The test compound was freshly prepared on the day of administration. 0.9% NaCl physiological saline solution was prepared as solvent for later use. Appropriate amount of test compound was added into required volume of physiological saline and fully suspended, and the concentration of prepared drug was 1 mg/ml. […] After administration, the latency of heat pain was measured at 0.5 h, 1 h and 2 h after administration. In order to prevent animals from being scalded on the hot plate, the maximum incubation time was set to 30 s. Maximum possible effect (MPE) % was used to evaluate analgesic effect of each compound, i.e., MPE %=[(Post drug latency−baseline latency)/(30−baseline latency)]×100. MPE % at different time points was recorded.
# SD rats = test: Rat SNL model, mechanical allodynia test (nerve pain); format: in vivo; conditions: 1 h after administration, 10 mg/kg oral, hydrochloride salt; control group 3.967 ± 0.775
# Description: Male SPF grade SD rats, weighed 150 g-180 g, were selected. Aseptic operation during surgery was performed. The animals were anesthetized with sodium pentobarbital (50 mg/kg, intraperitoneal injection). The surgical area of animal waist was shaved and the skin was disinfected three times with iodophor and 70% ethanol. After the skin was dried, the operation was started. Surgical knife was used to make a longitudinal incision at the back of the sacrum of the animal waist to expose the left paraspinal muscles, and stretcher was used to separate muscle tissue to expose the spine. The left spinal nerves L5 and L6 were separated and ligated with a 6-0 silk thread, and the wound was sutured. After the operation, the animals were placed on electrothermal pad, and 5 mL of saline was injected subcutaneously to prevent dehydration. After the animals were fully awakened and could move around freely, the animals were put back in the cage.
# After the operation, the animals were adapted in the experimental environment for 15min/day for 3 days.
# The animals were weighed to calculate the dose. […] After administration, mechanical allodynia test was performed. The rat was individually placed in a plexiglass box with a grid on the bottom of the box to ensure that the rat claw could be tested. The rats were allowed to adapt the environment for 15 min before test. After the adaptation was completed, the test fiber was used to test the center of the left hind claw of the rat. The test fiber comprises 8 test strengths: 3.61 (0.4 g), 3.84 (0.6 g), 4.08 (1 g), 4.31 (2 g), 4.56 (4 g), 4.74 (6 g), 4.93 (8 g), and 5.18 (15 g). […] During the test, rapid withdrawal of animal claw was recorded as pain response. When the test fiber was removed from animal skin, the withdrawal of animal claw was also recorded as pain response. If animal moved, the pain response was not recorded, and the test was repeated. […]
# Mechanical allodynia was expressed as withdrawal threshold (PWT) in rat behavioral test, which was calculated with the following formula: […]
# HepG-2 cells = test: Cytotoxicity test (CCK-8), hepatotoxicity; format: cell-based; conditions: HepG2 cell, 72 h
# Description: (§1) In this example, hepatotoxicity and neurotoxicity of compound I-1 and S-duloxetine were detected.
# (§2) HepG-2 and SH-SY5Y cells were placed in 10 cm dish and cultured at 37° C., 5% CO2 in a cell incubator. Trypsin was used to digest and resuspend cells and cells were counted. The cells were transferred to 96-well plate with 8000 cells in a well (100 μl/well), cultured at 37° C., 5% CO2 in a cell incubator for 24 hrs. A serial of gradient concentration dilutions of compound I-1 (prepared in example 2 of the present invention) with 2-fold dilution were prepared, and the system was 100 μL/well. The supernatant of cell culture system in the 96-well plate was removed on the first day, and fresh-prepared drug concentration system was add into culture plate wells (duplicate wells were set). The cells were cultured at 37° C., 5% CO2 in a cell incubator for 72 h. […] Microplate reader was used to measure the absorbance at 450 nm. Data was processed to calculate cytotoxicity, and IC50 was calculated by GraphPad Prism. […]
# (§3) A (Dosing): the absorbance of wells containing cells, CCK-8 solution and drug solution.
# (§4) A (control): the absorbance of wells containing medium and CCK-8 solution and without cells.
# (§5) A (0 Dosing): the absorbance of wells containing cells and CCK-8 solution but without drug solution […]
# SH-SY5Y cells = test: Cytotoxicity test (CCK-8), neurotoxicity; format: cell-based; conditions: 72 h
# Description: as §1, §2, §3, §4, §5
smiles,measurement,setting,value
CNCC[C@H](Oc1cccc2ccccc12)c1cccs1 [S-duloxetine],number of appearance of writhing reactions (visceral pain) within 30 min,ICR mice; 10 mg/kg by gavage,27 times
same,number of appearance of writhing reactions (visceral pain) within 30 min,ICR mice; 20 mg/kg by gavage,21 times
same,Licking claw time (s) in phase II (10-60 min),C57BL/6 mice; 1 mg/kg intraperitoneal,259.97 ± 64.44 s
same,Licking claw time (s) in phase II (10-60 min),C57BL/6 mice; 5 mg/kg intraperitoneal,230.49 ± 41.31 s
same,Licking claw time (s) in phase II (10-60 min),C57BL/6 mice; 10 mg/kg intraperitoneal,162.83 ± 36.27 s
same,Licking claw time (s) in phase II (10-60 min),C57BL/6 mice; 20 mg/kg intraperitoneal,72.27 ± 17.29 s
same,ED50 in phase II pain,"C57BL/6 mice; intraperitoneal, dose that decreases licking time by half vs blank control",8.00 mg/kg
same,MPE %,Sprague-Dawley rats; 0.5 h after administration,5.75 ± 5.74%
same,MPE %,Sprague-Dawley rats; 1 h after administration,7.44 ± 5.12%
same,MPE %,Sprague-Dawley rats; 2 h after administration,13.53 ± 4.99%
same,"PWT(g), claw withdrawal threshold",SD rats,6.519 ± 2.226 g
same,IC50,HepG-2 cells,33.3 µM
same,IC50,SH-SY5Y cells,28.6 µM
